Experimental data taken from paper PMC11200585, “Prospects for Prostate Cancer Chemotherapy: Cytotoxic Evaluation and Mechanistic Insights of Quinolinequinones with ADME/PK Profile” (Biomedicines, 2024).

Experiments:
Format in all cases: cell-based, human
NCI-H322M = assay: NCI-60 one-dose screen (non-small cell lung cancer); conditions: 10 µM single dose, 48 h
Experimental: (§1) The obtained quinolinequinones were submitted to NCI, Bethesda, USA, and, as per standard protocol of NCI, all compounds were evaluated for their antiproliferative activity at single-dose assay (10 µM concentration in DMSO) on a panel of 60 cancer cell lines derived from leukemia, non-small-cell lung, colon, CNS, melanoma, ovarian, renal, prostate, and breast, as per protocol. Tested compounds were added to the microtiter culture plates followed by incubation for 48 h at 37 °C. Sulforhodamine B (SRB), a protein-binding dye, is used for endpoint determination. The percent of the growth of the treated cells was determined in comparison to the untreated control cells and the results of each tested compound were reported. Data from one-dose experiments pertain to the percentage growth at 10 μM [16, 17, 18].

NCI-H522 = assay: as above; conditions: 10 µM single dose, 48 h
Experimental: as §1

NCI-H460 = assay: as above; conditions: 10 µM single dose, 48 h
Experimental: as §1

HOP-62 = assay: as above; conditions: 10 µM single dose, 48 h
Experimental: as §1

NCI-H23 = assay: as above; conditions: 10 µM single dose, 48 h
Experimental: as §1

HOP-92 = assay: as above; conditions: 10 µM single dose, 48 h
Experimental: as §1

A549/ATCC = assay: as above; conditions: 10 µM single dose, 48 h
Experimental: as §1

NCI-H226 = assay: as above; conditions: 10 µM single dose, 48 h
Experimental: as §1

EKVX = assay: as above; conditions: 10 µM single dose, 48 h
Experimental: as §1

HCT-15 = assay: NCI-60 one-dose screen (colon cancer); conditions: 10 µM single dose, 48 h
Experimental: as §1

HCC-2998 = assay: NCI-60 one-dose screen (colon cancer); conditions: 10 µM single dose, 48 h
Experimental: as §1

HCT-116 = assay: NCI-60 one-dose screen (colon cancer); conditions: 10 µM single dose, 48 h
Experimental: as §1

COLO 205 = assay: NCI-60 one-dose screen (colon cancer); conditions: 10 µM single dose, 48 h
Experimental: as §1

SW-620 = assay: NCI-60 one-dose screen (colon cancer); conditions: 10 µM single dose, 48 h
Experimental: as §1

HT29 = assay: NCI-60 one-dose screen (colon cancer); conditions: 10 µM single dose, 48 h
Experimental: as §1

KM12 = assay: NCI-60 one-dose screen (colon cancer); conditions: 10 µM single dose, 48 h
Experimental: as §1

OVCAR-5 = assay: NCI-60 one-dose screen (ovarian cancer); conditions: 10 µM single dose, 48 h
Experimental: as §1

NCI/ADR-RES = assay: NCI-60 one-dose screen (ovarian cancer); conditions: 10 µM single dose, 48 h
Experimental: as §1

OVCAR-3 = assay: NCI-60 one-dose screen (ovarian cancer); conditions: 10 µM single dose
Experimental: as §1

IGROV1 = assay: NCI-60 one-dose screen (ovarian cancer)
Experimental: as §1

OVCAR-4 = assay: NCI-60 one-dose screen (ovarian cancer); conditions: 10 µM single dose, 48 h
Experimental: as §1

SK-OV-3 = assay: NCI-60 one-dose screen (ovarian cancer); conditions: 10 µM single dose, 48 h
Experimental: as §1

OVCAR-8 = assay: NCI-60 one-dose screen (ovarian cancer); conditions: 10 µM single dose, 48 h
Experimental: as §1

SK-MEL-5 = assay: NCI-60 one-dose screen (melanoma); conditions: 10 µM single dose, 48 h
Experimental: as §1

SK-MEL-2 = assay: NCI-60 one-dose screen (melanoma); conditions: 10 µM single dose, 48 h
Experimental: as §1

SK-MEL-28 = assay: NCI-60 one-dose screen (melanoma); conditions: 10 µM single dose, 48 h
Experimental: as §1

UACC-62 = assay: NCI-60 one-dose screen (melanoma); conditions: 10 µM single dose, 48 h
Experimental: as §1

MALME-3M = assay: NCI-60 one-dose screen (melanoma); conditions: 10 µM single dose, 48 h
Experimental: as §1

LOX IMVI = assay: NCI-60 one-dose screen (melanoma); conditions: 10 µM single dose, 48 h
Experimental: as §1

MDA-MB-435 = assay: NCI-60 one-dose screen (melanoma); conditions: 10 µM single dose, 48 h
Experimental: as §1

UACC-257 = assay: NCI-60 one-dose screen (melanoma); conditions: 10 µM single dose, 48 h
Experimental: as §1

PC-3 = assay: NCI-60 one-dose screen (prostate cancer); conditions: 10 µM single dose, 48 h
Experimental: as §1

DU-145 = assay: NCI-60 one-dose screen (prostate cancer); conditions: 10 µM single dose, 48 h
Experimental: as §1

SNB-75 = assay: NCI-60 one-dose screen (CNS cancer); conditions: 10 µM single dose, 48 h
Experimental: as §1

SNB-19 = assay: NCI-60 one-dose screen (CNS cancer); conditions: 10 µM single dose, 48 h
Experimental: as §1

SF-539 = assay: NCI-60 one-dose screen (CNS cancer); conditions: 10 µM single dose, 48 h
Experimental: as §1

SF-295 = assay: NCI-60 one-dose screen (CNS cancer); conditions: 10 µM single dose, 48 h
Experimental: as §1

U251 = assay: NCI-60 one-dose screen (CNS cancer); conditions: 10 µM single dose, 48 h
Experimental: as §1

SF-268 = assay: NCI-60 one-dose screen (CNS cancer); conditions: 10 µM single dose, 48 h
Experimental: as §1

MDA-MB-231/ATCC = assay: NCI-60 one-dose screen (breast cancer); conditions: 10 µM single dose, 48 h
Experimental: as §1

MDA-MB-468 = assay: NCI-60 one-dose screen (breast cancer); conditions: 10 µM single dose, 48 h
Experimental: as §1

T-47D = assay: NCI-60 one-dose screen (breast cancer); conditions: 10 µM single dose
Experimental: as §1

HS 578T = assay: NCI-60 one-dose screen (breast cancer); conditions: 10 µM single dose, 48 h
Experimental: as §1

MCF7 = assay: NCI-60 one-dose screen (breast cancer); conditions: 10 µM single dose, 48 h
Experimental: as §1

BT-549 = assay: NCI-60 one-dose screen (breast cancer); conditions: 10 µM single dose, 48 h
Experimental: as §1

A498 = assay: NCI-60 one-dose screen (renal cancer); conditions: 10 µM single dose, 48 h
Experimental: as §1

TK-10 = assay: NCI-60 one-dose screen (renal cancer); conditions: 10 µM single dose, 48 h
Experimental: as §1

SN12C = assay: NCI-60 one-dose screen (renal cancer); conditions: 10 µM single dose, 48 h
Experimental: as §1

786-0 = assay: NCI-60 one-dose screen (renal cancer); conditions: 10 µM single dose, 48 h
Experimental: as §1

ACHN = assay: NCI-60 one-dose screen (renal cancer); conditions: 10 µM single dose, 48 h
Experimental: as §1

UO-31 = assay: NCI-60 one-dose screen (renal cancer); conditions: 10 µM single dose, 48 h
Experimental: as §1

SR = assay: NCI-60 one-dose screen (leukemia); conditions: 10 µM single dose
Experimental: as §1

MOLT-4 = assay: NCI-60 one-dose screen (leukemia); conditions: 10 µM single dose, 48 h
Experimental: as §1

RPMI-8226 = assay: NCI-60 one-dose screen (leukemia); conditions: 10 µM single dose, 48 h
Experimental: as §1

HL-60(TB) = assay: NCI-60 one-dose screen (leukemia); conditions: 10 µM single dose
Experimental: as §1

K-562 = assay: NCI-60 one-dose screen (leukemia)
Experimental: as §1

CCRF-CEM = assay: NCI-60 one-dose screen (leukemia); conditions: 10 µM single dose
Experimental: as §1

COc1ccc(NC2=C(Cl)C(=O)c3nc(C)ccc3C2=O)cc1OC [AQQ4]
GP (growth percentage) (NCI-H322M): 99.05%
GP (growth percentage) (NCI-H522): 78.84%
GP (growth percentage) (NCI-H460): 100.46%
GP (growth percentage) (HOP-62): 110.03%
GP (growth percentage) (NCI-H23): 59.03%
GP (growth percentage) (HOP-92): 112.07%
GP (growth percentage) (A549/ATCC): 107.06%
GP (growth percentage) (NCI-H226): 97.11%
GP (growth percentage) (EKVX): 50.81%
GP (growth percentage) (HCT-15): 82.29%
GP (growth percentage) (HCC-2998): 103.69%
GP (growth percentage) (HCT-116): 55.84%
GP (growth percentage) (COLO 205): 107.70%
GP (growth percentage) (SW-620): 72.23%
GP (growth percentage) (HT29): 109.56%
GP (growth percentage) (KM12): 98.23%
GP (growth percentage) (OVCAR-5): 104.66%
GP (growth percentage) (NCI/ADR-RES): 94.66%
GP (growth percentage) (OVCAR-3; 48 h): 13.16%
inhibition at 10 µM (OVCAR-3; Homo sapiens): 86.8%
GP (growth percentage) (IGROV1; 10 µM single dose, 48 h): 19.63%
inhibition at 10 µM (IGROV1; Homo sapiens, IGROV-1, 10 µM single dose): 80.4%
GP (growth percentage) (OVCAR-4): 71.38%
GP (growth percentage) (SK-OV-3): 91.82%
GP (growth percentage) (OVCAR-8): 92.63%
GP (growth percentage) (SK-MEL-5): 86.57%
GP (growth percentage) (SK-MEL-2): 100.13%
GP (growth percentage) (SK-MEL-28): 101.65%
GP (growth percentage) (UACC-62): 71.83%
GP (growth percentage) (MALME-3M): 94.54%
GP (growth percentage) (LOX IMVI): −3.09%
GP (growth percentage) (MDA-MB-435): −67.16%
GP (growth percentage) (UACC-257): 91.03%
GP (growth percentage) (PC-3): 70.56%
GP (growth percentage) (DU-145): 93.00%
GP (growth percentage) (SNB-75): 110.92%
GP (growth percentage) (SNB-19): 94.62%
GP (growth percentage) (SF-539): 103.46%
GP (growth percentage) (SF-295): 103.62%
GP (growth percentage) (U251): 105.80%
GP (growth percentage) (SF-268): 84.69%
GP (growth percentage) (MDA-MB-231/ATCC): 72.96%
GP (growth percentage) (MDA-MB-468): 58.11%
GP (growth percentage) (T-47D; 48 h): 14.93%
inhibition at 10 µM (T-47D; Homo sapiens, T47D): 85.1%
GP (growth percentage) (HS 578T): 118.57%
GP (growth percentage) (MCF7): 59.00%
GP (growth percentage) (BT-549): 126.22%
GP (growth percentage) (A498): 82.55%
GP (growth percentage) (TK-10): 148.82%
GP (growth percentage) (SN12C): 90.46%
GP (growth percentage) (786-0): 98.99%
GP (growth percentage) (ACHN): 95.00%
GP (growth percentage) (UO-31): 100.30%
GP (growth percentage) (SR; 48 h): 0.92%
inhibition at 10 µM (SR; Homo sapiens): 99.1%
GP (growth percentage) (MOLT-4): 69.83%
GP (growth percentage) (RPMI-8226): 47.33%
GP (growth percentage) (HL-60(TB); 48 h): 9.95%
inhibition at 10 µM (HL-60(TB); Homo sapiens): 90%
GP (growth percentage) (K-562; 10 µM single dose, 48 h): 7.18%
inhibition at 10 µM (K-562; Homo sapiens, K562, 10 µM single dose): 92.8%
GP (growth percentage) (CCRF-CEM; 48 h): 15.29%
inhibition at 10 µM (CCRF-CEM; Homo sapiens): 84.7%
